Entries after “also recorded” stand apart in the source; their conditions may differ.
Tests used:
[1] = tested on: zebrafish embryos; assay: Zebrafish behavioral assay (light-dependent motor excitation, excitation score); type: in vivo; details: for behavioral excitation (activity of optovin analogs) / light-dependent motor excitation in vivo: 10 μM; for behavioral excitation (activity of optovin analogs): n=5, FIG. 2A; for light-dependent motor excitation in vivo: n=3, FIG. 4H
Procedure: To identify small molecules for the optical control of endogenous channels, a screen was conducted for compounds that could drive light-dependent motor behaviors in wild-type zebrafish. Zebrafish embryos are particularly well suited for phenotype based chemical screens^28,29. They are blind for the first 3 days of development and other than a one-time motor response to the first light exposure in dark-adapted animals (the photomotor response, PMR), zebrafish embryos are unresponsive to light^31,30 (FIG. 1A). A library of 10,000 structurally diverse synthetic small molecules was screened for compounds that render zebrafish embryos responsive to light. Behavioral responses were measured for each well in comparison to a set of 2,500 DMSO treated controls. This screen identified a single compound, optovin, that increased motor activity greater than 40 standard deviations above the control mean (FIGS. 1A-1C).
A large number of fertilized eggs (up to 5,000 embryos per day) were collected from group mating of Ekkwill or TuAB zebrafish. Embryos were raised in HEPES (10 mM) buffered E3 media in a dark incubator at 28° C. until […]. Groups of ˜8 embryos (28 hpf) were distributed into the wells of flat bottom black-walled 96 well plates filled with E3 media (360 μl). Embryos were then incubated in a dark incubator 25° C. for chemical treatment and subsequent experiments.
The Tim Tec ACTIPROBEβ library contains 10,000 compounds dissolved in DMSO at a stock concentration of 1 mg/ml (˜3 mM). The Tim Tec library was screened at a 1:300 dilution in E3 buffer for a final concentration of ˜10 μM. Negative controls were treated with an equal volume of DMSO. Stock solutions were added directly to zebrafish in the wells of a 96 well plate, mixed, and allowed to incubate for 2-10 hours in the dark prior to behavioral evaluation in the PMR assay. The Tim Tec library (10,000 compounds) was purchased from the Tim Tec corporation (Newark, Del.). The Neurotransmitter Library (700 compounds; cat #2810) was purchased from Biomol International. Reordered hit compounds were dissolved in DMSO and added to wells as described above.
Animals were exposed to a two pulse stimulus train with a 10 s inter-stimulus interval. Exposure to the first pulse was used to trigger the photomotor response, which has a refractory phase of approximately 10 minutes. […] In a typical assay, 1000 frames of digital video were recorded at 33 fps using a Hamamatsu ORCA-ER camera mounted on a Nikon TE200 microscope with a 1× objective. Instrument control and data measurement were performed using custom scripts for Metamorph Software (Molecular Devices). Each video was saved for review. Light stimuli were generated with a 300-watt xenon bulb housed in a Sutter Lambda LS illuminator and delivered to the well 10 s and 20 s after the start of each video. A cold mirror (reflectance between 300 nm and 700 nm) on the Sutter illuminator was used to block wavelengths outside of this range. Light intensity was measured using a PM100D power meter attached to a S120VC photodiode power sensor (Thorlabs). Where indicated, filters were used to restrict the excitation light to the indicated wavelengths.
To analyze digital video recordings, custom software scripts were used to automatically draw six evenly spaced line segments across each well such that each embryo is likely to be crossed by one of the lines. The software then tracks the average intensity of the pixels for each segment over time. As the embryos move, the light intensity at some of the pixels changes. The motion index was calculated by taking the total absolute difference in pixel intensity between frames. This motion index correlates with the overall amount of motion in the well, both in terms of contraction frequency and number of animals in motion. Behavioral features are quantified by ‘excitation scores’ that are calculated by taking the 75th percentile of the motion index for 3-5 s following the light stimulus. […]

[2] = tested on: dorsal root ganglia (DRG) sensory neurons; assay: Calcium imaging of DRG sensory neurons; type: cell-based, mouse; details: 100 μM mustard oil
Procedure: To determine if optovin acts on sensory neurons, the activity of treated and untreated dorsal root ganglia (DRG) sensory neurons isolated from wild type mice were compared. […] TRPA1 channels play important roles in detecting chemical, thermal, and mechanical stimuli in a variety of organisms^34,35.
C57Bl/6 male mice (3-4 weeks old) were decapitated and DRG were dissected into 4° C. Hank's Balanced Salt Solution (HBSS; Gibco), then neurons were dissociated using collagenase (1 mg/mL; Worthington) and dispase (5 mg/mL; Gibco) dissolved in HBSS. Neurons were plated in Neurobasal-A medium (Invitrogen), supplemented with B-27 Supplement (Gibco), L-glutamine (Gibco), and penicillin-streptomycin (Gibco). The neurons were plated onto coverslips coated with 0.1 mg/mL poly-D-lysine (Sigma) and 5 μg/mL laminin (Sigma). After 24 h, neurons were washed with assay buffer (HBSS, supplemented with 9 mM HEPES, 11 mM D-glucose, 0.1% fatty-acid free BSA, pH 7.3) and incubated for 1 h with 2 μM Fura2-AM (Invitrogen) with 0.2% pluronic (Invitrogen) in assay buffer in the dark at room temperature. The neurons were then washed with assay buffer and allowed to equilibrate at room temperature for 30 min prior to imaging. After a 120 s baseline perfusion of assay buffer containing 3.3% DMSO, 100 μM optovin dissolved in the DMSO-assay buffer solution, or the DMSO-assay buffer solution alone as a control, was perfused onto the neurons for a period of 1 min. Fura-2 is activated with UV-light, and the process of imaging Fura-2 was enough to activate the optovin. […] Following this one-minute period, cells were perfused with DMSO-assay buffer to remove the agonist, which was followed by addition of 100 μM mustard oil (in DMSO-assay buffer) to determine the total number of TrpA1-expressing neurons present. Images were acquired on a Nikon Eclipse Ti microscope (Nikon, Melville, N.Y.).

Compound | behavioral excitation (activity of optovin analogs) [1] | also measured
Cc1cc(/C=C2/NC(=O)NC2=O)c(C)n1-c1cccnc1 [6c4] | retains optovin activity | –
COc1cc(C(C)=C2SC(=S)NC2=O)ccc1O [7d1] | – | light-dependent motor excitation in vivo [1]: does not cause light dependent motor activity
O=C1CSC(=S)N1 [6c5] | Neither analog retains activity; also recorded: inactive | –
Cc1cc(/C=C2/SC(=S)NC2=O)c(C)n1-c1ccccc1 [6b8] | bioactive; also recorded: active | –
COc1ccc(/C=C2/SC(=S)NC2=O)cc1O [7c7] | – | light-dependent motor excitation in vivo [1]: cause light-dependent motor excitation
CCN1C(=O)C(=Cc2cc(C)n(-c3cccnc3)c2C)SC1=S [6c3] | abrogate the optovin response; also recorded: inactive | –
C1CN2CCN1CC2 [DABCO, 1,4-diazabicyclo[2.2.2]octane, reference compound] | – | effect on other light elicited behaviors (PMR) ([1]; co-treatment with optovin): not affect other light elicited behaviors; suppression of the optovin response in vivo ([1]; co-treatment with optovin): completely suppress the optovin response
C=CCN=C=S [mustard oil, reference compound] | – | response of optovin responsive DRG neurons to mustard oil [2]: responded to mustard oil
Cc1cc(/C=C2/SC(=S)NC2=O)c(C)n1C [6c1] | bioactive; also recorded: active | lowest effective dose ([1]; zebrafish, in vivo): 300 nM; lowest effective dose, fold lower than optovin ([1]; zebrafish, in vivo): 10 ×
CN(C)c1ccc(C=C2SC(=S)NC2=O)cc1 [6c7] | Neither analog retains activity; also recorded: inactive | –
Cc1cc(C=C2SC(=O)NC2=O)c(C)n1-c1cccnc1 [6c2] | abrogate the optovin response; also recorded: inactive | –

Reference: patent publication US9486447B2, “Compositions and methods for controlling neuronal excitation” (The General Hospital Corporation, priority 2011, dated 2016)
